From US20230279495A1, “MOLECULAR SIGNATURES OF RADIATION SENSITIVITY IN TUMORS, AND METHODS OF USE THEREOF” (MEMORIAL SLOAN KETTERING CANCER CENTER, priority 2019, published 2023)

How the values were obtained:
[1] = system: DSB repair pathways (NHEJ, MMEJ, HR) at the AAVS1 locus in U2OS cells; test: Cas9 assay (DSBR-Seq): NHEJ, MMEJ and HR quantified by sequencing repair events at a site-directed DSB; assay type: cell-based
Procedure: FIG. 4. A-G. E7 expression shifts DNA double strand break repair pathway choice towards MMEJ. (FIG. 4 A) Schematic of DSBR-Seq Assay. The sequencing reads are classified into NHEJ (<5 bp deletion) in (FIG. 4 B), MMEJ (>5 bp deletion with at least 2 bp MH) in (FIG. 4 C) and HR (substitutions from HR donor) in (FIG. 4 D). The DNApk inhibitor […] was used at 1 μM (micromolar) concentration. (FIG. 4 E) cNHEJ measured as a fraction of mutant reads with deletion sizes less than 5 bp. (FIG. 4 F) E7 expression favors mutant reads with deletion sizes larger than 5 bp representing DSBs repaired by MMEJ. (FIG. 4 G) E7 expression results in lower deletion frequency of small deletions near the double strand break. Results represent the mean of 3 independent experiments+/−the standard error of the mean. * represents a p-vale of <0.05.
To measure DSB repair pathway tradeoffs within an endogenous genomic locus, we used the Cas9 endonuclease to create a site-directed DSB at the AAVS1 locus, chosen because of its characterization as a “safe” genomic locus for integration. Cas9 creates a blunt-ended DSB and repair events at the breaksite can be cataloged in a pool of cells using PCR amplification of a region surrounding the breaksite and massively parallel sequencing to quantify repair outcomes. […] NHEJ is measured with sequencing events with small (1-5) base pair deletions whereas MMEJ is quantified using sequencing events with large deletions and microhomology at the breaksite. All three pathways are thereby quantifiable in a single set of sequencing data in a single pool of cells (FIG. 4 A). […]
To quantify NHEJ, MMEJ and HR at an endogenous breaksite, a Cas9 and gRNA expression plasmid and a donor template oligonucleotide was transfected into U2OS cells with and without E7 expressed. A PCR product surrounding the breaksite was sequenced using Illumina-based NGS technology and the pattern of deletions at the breaksite was analyzed and quantified according to methods described within the Example 2 (SI appendix). […]

[2] = molecular target: Rb (retinoblastoma protein, RB1) (human) (UniProt P06400); test: cell-based or functional assay
Chain of UniProt P06400 (P06400 2-928 limits assumed): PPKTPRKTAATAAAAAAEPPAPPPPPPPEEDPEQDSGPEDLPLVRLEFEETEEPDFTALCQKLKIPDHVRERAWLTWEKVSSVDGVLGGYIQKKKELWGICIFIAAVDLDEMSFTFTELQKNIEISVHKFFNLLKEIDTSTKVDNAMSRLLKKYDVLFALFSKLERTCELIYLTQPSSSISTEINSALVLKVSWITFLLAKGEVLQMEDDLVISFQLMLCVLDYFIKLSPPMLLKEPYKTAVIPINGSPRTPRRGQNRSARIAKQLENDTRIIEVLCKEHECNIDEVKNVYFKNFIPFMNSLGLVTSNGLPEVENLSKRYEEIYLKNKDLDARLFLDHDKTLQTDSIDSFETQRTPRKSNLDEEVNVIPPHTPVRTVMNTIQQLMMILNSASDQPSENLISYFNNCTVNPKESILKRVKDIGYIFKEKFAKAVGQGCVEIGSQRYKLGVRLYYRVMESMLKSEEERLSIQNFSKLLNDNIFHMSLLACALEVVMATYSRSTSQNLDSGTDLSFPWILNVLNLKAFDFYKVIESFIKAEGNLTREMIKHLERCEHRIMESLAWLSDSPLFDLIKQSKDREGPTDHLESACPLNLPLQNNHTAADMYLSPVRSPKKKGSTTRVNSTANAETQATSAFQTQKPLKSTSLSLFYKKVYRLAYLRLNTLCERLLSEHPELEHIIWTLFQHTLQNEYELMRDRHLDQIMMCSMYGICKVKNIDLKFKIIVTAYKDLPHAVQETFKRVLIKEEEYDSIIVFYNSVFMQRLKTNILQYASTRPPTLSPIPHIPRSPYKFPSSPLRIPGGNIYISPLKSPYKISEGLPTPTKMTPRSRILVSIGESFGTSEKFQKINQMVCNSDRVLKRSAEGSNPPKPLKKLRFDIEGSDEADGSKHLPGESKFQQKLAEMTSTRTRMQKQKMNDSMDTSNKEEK

Row | Compound | small deletions (1-5 base pairs), reflective of NHEJ ([1]; inhibitor at 1 μM (FIG. 4 B)) | larger deletions (>5 bp) with microhomology (≥2 bp) (MMEJ) ([1]; inhibitor at 1 μM (FIG. 4 C)) | HR (substitutions from HR donor) ([1]; inhibitor at 1 μM (FIG. 4 D)) | MMEJ activity (percentage of GFP positive cells, U2OS EJ2-GFP reporter, against empty vector) [2] [%] | decrease in NHEJ activity (percentage of GFP positive cells, U2OS EJ5-GFP reporter, against empty vector) [2] [%]
1 | O=c1cc(N2CCOCC2)oc2c(-c3cccc4c3sc3ccccc34)cccc12 [Nu7441] | decrease | increase | increase |  | 
2 | HPV16 E7 oncoprotein (from UniProt P03129 1-98) |  |  |  | 42 | 31
